Experimental data as given in ChEMBL document CHEMBL1201862, “PubChem BioAssay data set” (2004).
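Each compound was tested at five concentrations against cells in 96-well plates for 48 hours. At the GI50, growth is halved.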 The source made the active and inactive calls. Rule as the data show it: active = GI50 up to about 1.1 µM and inactive = higher.

Key:
Assay in all cases: growth of human tumour cells (NCI), 48 h
A549 = tested on: A549
BT-549 = tested on: BT-549
HCC 2998 = tested on: HCC 2998
HCT-15 = tested on: HCT-15
HOP-92 = tested on: HOP-92
KM12 = tested on: KM12
MCF7 = tested on: MCF7
MDA-MB-435 = tested on: MDA-MB-435
MOLT-4 = tested on: MOLT-4
NCI-H23 = tested on: NCI-H23
NCI/ADR-RES = tested on: NCI/ADR-RES
OVCAR-3 = tested on: OVCAR-3
OVCAR-5 = tested on: OVCAR-5
SF-268 = tested on: SF-268
SF-295 = tested on: SF-295
SNB-19 = tested on: SNB-19
SW-620 = tested on: SW-620
U-251 = tested on: U-251
IGROV-1 = tested on: IGROV-1
SNB-75 = tested on: SNB-75

Measured: GI50

O=C1/C(=C\c2cccc(Oc3ccccc3)c2)SC(c2ccccc2)N1c1ccccc1 (configuration not stated)
inactive: A549 > 100 µM | BT-549 > 100 µM | HCC 2998 > 100 µM | HOP-92 60.7 µM | KM12 46.9 µM | MCF7 30 µM | MDA-MB-435 33.7 µM | MOLT-4 23.2 µM | NCI-H23 92.5 µM | NCI/ADR-RES 75.3 µM | OVCAR-3 95.7 µM | OVCAR-5 > 100 µM | SF-268 > 100 µM | SF-295 > 100 µM | SNB-19 58.1 µM | SW-620 12.4 µM | U-251 25.1 µM
77.3 µM: HCT-15

O=C1/C(=C/c2ccc(Cl)cc2)CSc2ccccc21
inactive: A549 45.5 µM | BT-549 27 µM | HOP-92 33.6 µM | IGROV-1 23.7 µM | KM12 10.1 µM | MCF7 2.26 µM | MDA-MB-435 4.86 µM | MOLT-4 5.55 µM | NCI-H23 21.3 µM | NCI/ADR-RES 16.6 µM | OVCAR-3 22.3 µM | SF-268 22.5 µM | SNB-19 9.2 µM | SNB-75 31.9 µM | SW-620 3.71 µM | U-251 5.87 µM
4.62 µM: HCT-15

N=C(N)N/N=C/c1nc2sccn2c1[N+](=O)[O-]
47.8 µM: HCT-15
inactive: A549 35.4 µM | BT-549 39.9 µM | HOP-92 68.9 µM | IGROV-1 60.4 µM | KM12 16.6 µM | MCF7 18 µM | MDA-MB-435 19.8 µM | NCI-H23 18.1 µM | NCI/ADR-RES > 100 µM | OVCAR-3 17.9 µM | OVCAR-5 > 100 µM | SF-268 33.3 µM | SF-295 33.3 µM | SNB-19 35.2 µM | SNB-75 11.3 µM | SW-620 29.4 µM | U-251 28.6 µM

Cc1cc(C)c2nc3c(c(C(O)C4CCCCN4)c2c1)CC/C3=C\c1ccc(Cl)cc1 (configuration not stated)
58.7 µM: HCT-15
inactive: A549 76 µM | BT-549 > 100 µM | HOP-92 > 100 µM | IGROV-1 84.1 µM | KM12 64.3 µM | MCF7 46.6 µM | MDA-MB-435 55.1 µM | MOLT-4 26.7 µM | NCI-H23 85.9 µM | NCI/ADR-RES 52.1 µM | OVCAR-3 42.1 µM | OVCAR-5 41.1 µM | SF-268 > 100 µM | SF-295 73.1 µM | SNB-19 > 100 µM | SNB-75 54 µM | SW-620 55.3 µM | U-251 60.4 µM

CCC1(c2ccc(N3C(=O)c4cc(OC)c(OC)cc4C3=O)cc2)CCC(=O)NC1=O (configuration not stated)
inactive: A549 > 10 µM | BT-549 > 10 µM | HCC 2998 > 10 µM | HOP-92 > 10 µM | IGROV-1 > 10 µM | KM12 > 10 µM | MCF7 > 10 µM | MDA-MB-435 > 10 µM | MOLT-4 > 10 µM | NCI-H23 > 10 µM | NCI/ADR-RES > 10 µM | OVCAR-3 > 10 µM | OVCAR-5 > 10 µM | SF-268 > 10 µM | SF-295 > 10 µM | SNB-19 > 10 µM | SW-620 > 10 µM | U-251 > 10 µM
> 10 µM: HCT-15

O=c1[nH][nH]c(=S)c(=O)[nH]1
inactive: A549 > 100 µM | BT-549 > 100 µM | HOP-92 > 100 µM | IGROV-1 > 100 µM | KM12 > 100 µM | MCF7 > 100 µM | MDA-MB-435 > 100 µM | MOLT-4 > 100 µM | NCI-H23 > 100 µM | NCI/ADR-RES > 100 µM | OVCAR-3 > 100 µM | OVCAR-5 > 100 µM | SF-268 > 100 µM | SF-295 > 100 µM | SNB-19 > 100 µM | SNB-75 > 100 µM | SW-620 > 100 µM | U-251 > 100 µM
> 100 µM: HCT-15

COc1cc(C2SCC(=O)N2c2ccccc2Cl)cc(OC)c1OC (configuration not stated)
> 100 µM: HCT-15
inactive: A549 > 100 µM | BT-549 54 µM | HCC 2998 > 100 µM | HOP-92 > 100 µM | IGROV-1 > 100 µM | KM12 47.2 µM | MCF7 62.1 µM | MDA-MB-435 23.7 µM | NCI-H23 > 100 µM | NCI/ADR-RES 88.5 µM | OVCAR-3 > 100 µM | OVCAR-5 > 100 µM | SF-268 > 100 µM | SF-295 > 100 µM | SNB-19 79.3 µM | SW-620 > 100 µM | U-251 > 100 µM

CC(=O)O[C@H]1CC2C(C3CCC(C(C)CCC(=O)O)[C@]31C)[C@H](OC(C)=O)C[C@@H]1CC3(CC[C@]21C)OOC1(CC[C@]2(C)C4C[C@H](OC(C)=O)[C@]5(C)C(C(C)CCC(=O)O)CCC5C4[C@H](OC(C)=O)C[C@@H]2C1)OO3 (some centres not stated)
2.22 µM: HCT-15
inactive: A549 1.27 µM | BT-549 1.56 µM | HCC 2998 2.03 µM | IGROV-1 2.12 µM | KM12 1.31 µM | MCF7 2.7 µM | MDA-MB-435 1.94 µM | MOLT-4 2.03 µM | NCI-H23 1.64 µM | NCI/ADR-RES 2.63 µM | OVCAR-3 1.8 µM | OVCAR-5 1.78 µM | SF-268 1.38 µM | SF-295 1.77 µM | SNB-19 2.86 µM | SNB-75 1.3 µM | SW-620 3.46 µM | U-251 1.28 µM

O=[N+]([O-])c1cn[n+]([O-])c2ccccc12
2.06 µM: HCT-15
inactive: A549 12 µM | BT-549 5.22 µM | HCC 2998 1.7 µM | HOP-92 12.7 µM | KM12 5.36 µM | MCF7 10.7 µM | MDA-MB-435 13.8 µM | MOLT-4 1.71 µM | NCI-H23 14.7 µM | NCI/ADR-RES 5.14 µM | OVCAR-3 2.55 µM | OVCAR-5 12.4 µM | SF-268 4.59 µM | SF-295 4.75 µM | SNB-19 11.5 µM | SW-620 1.98 µM | U-251 4.19 µM

O=C(N/N=C1\CCc2ccccc21)N/N=C1\CCc2ccccc21
inactive: A549 > 100 µM | BT-549 > 100 µM | HCC 2998 > 100 µM | IGROV-1 > 100 µM | KM12 > 100 µM | MCF7 > 100 µM | MDA-MB-435 > 100 µM | MOLT-4 > 100 µM | NCI-H23 > 100 µM | NCI/ADR-RES > 100 µM | OVCAR-3 > 100 µM | OVCAR-5 > 100 µM | SF-268 > 100 µM | SF-295 > 100 µM | SNB-19 > 100 µM | SNB-75 > 100 µM | SW-620 > 100 µM | U-251 > 100 µM
> 100 µM: HCT-15

CCOP1(=O)OCC2OC(n3cnc4c(N)ncnc43)C(O)C2O1.c1ccccc1 (configuration not stated)
inactive: A549 > 100 µM | BT-549 > 100 µM | HOP-92 > 100 µM | IGROV-1 > 100 µM | KM12 > 100 µM | MCF7 > 100 µM | MDA-MB-435 > 100 µM | MOLT-4 > 100 µM | NCI/ADR-RES > 100 µM | OVCAR-3 > 100 µM | OVCAR-5 > 100 µM | SF-268 > 100 µM | SF-295 > 100 µM | SNB-19 > 100 µM | SNB-75 > 100 µM | SW-620 > 100 µM | U-251 > 100 µM
> 100 µM: HCT-15
